{"source": "patent US20260207519A1", "about": "“ISOLATED TARGETED DELIVERY SYSTEM FOR THE TREATMENT OF OVARIAN CANCER” (CELLIS SP. Z O.O. [LTD.], priority 2022, published 2026)", "tested_on": "A2780_luc tumors", "assay": "3rd in vivo study: A2780_luc orthotopic xenograft model", "design": "species or system female Balb/c nude mice", "conditions": "vehicle 13 days; Kaplan-Meier, log-rank test", "method": "FIG. 14: The Kaplan-Meier survival curve of female nude mice implanted […] with A2780_luc tumors. N=8 for both groups initially. Statistical analysis was carried out using log-rank (Mantel-Cox) test.\nAll in vivo studies were performed using female Balb/c nude mice at age 5-8 weeks. Animals were imaged using an In Vivo Imaging System (IVIS, Newton 7.0, Vilber).\nA2780_luc or A2780-cis_luc cells were orthotopically implanted into both ovaries of mice. 5 days after implant mice were imaged using IVIS and those with most similar bioluminescent intensity values were assigned to the following treatment groups: […]", "data": [{"smiles": "N.N.[Cl][Pt][Cl]", "note": "[cisplatin, Cisplatin]", "values": [{"measurement": "median survival", "value": 14.5, "unit": "days"}]}]}
